Test results reported in ChEMBL document CHEMBL3603834, “Syntheses and Biological Evaluation of Costunolide, Parthenolide, and Their Fluorinated Analogues” (J Med Chem, 2015).

Experiments:
HL-60 [1] = assay: Cytotoxicity against human HL60/A cells; format: functional, cell-based
[2] = Cytotoxicity against human KG1a cells; format: functional, cell-based; conditions: KG-1a
HL-60 [3] = assay: Cytotoxicity against human HL60 cells; format: functional, cell-based
C6 = assay: Cytotoxicity against rat C6 cells; format: functional, cell-based
[4] = Chemical stability of the compound in p-toluenesulfonic acid in dichloromethane after 48 hrs; format: physicochemical
[5] = Half life in rat plasma; format: ADME, cell-free
[6] = Half life in human liver microsomes by HPLC-MS/MS analysis in presence of NADPH; format: ADME
[7] = Metabolic stability in rat plasma assessed as compound degradation after 420 mins; format: ADME, cell-free; conditions: read-out: Drug degradation

| Compound | IC50 (HL-60 [1]) | IC50 [2] | IC50 (HL-60 [3]) | IC50 (C6) | Stability [4] | half-life [5] | half-life [6] | metabolised at 7 h [7] |
| --- | --- | --- | --- | --- | --- | --- | --- | --- |
| C=C1C(=O)O[C@H]2[C@H]1CC/C(CF)=C\CC[C@@]1(C)O[C@@H]21 | 1.5 µM | 2.9 µM | 2 µM | 2.8 µM | Stable |  |  |  |
| C=C1CC[C@H]2C(=C)C(=O)O[C@@H]2[C@@H]2O[C@]2(C)CCC1F (some centres undefined) | 9.2 µM | 8.6 µM | 11.9 µM | 11.3 µM | Stable |  |  |  |
| C=C1C(=O)O[C@H]2[C@H]1CC/C(C(F)F)=C\CC[C@@]1(C)O[C@@H]21 | 2.1 µM | 1.8 µM | 2 µM | 3.4 µM | Stable |  |  |  |
| C=C1C(=O)O[C@H]2[C@H]1CC/C(C(F)(F)F)=C\CC[C@@]1(C)O[C@@H]21 | 2 µM | 2 µM | 2.1 µM | 3 µM | Stable | 0.338 h | 1.43 h |  |
| C=C1C(=O)O[C@@H]2/C=C(\C)CC/C=C(/C(F)(F)F)CC[C@@H]12 | 4.9 µM | 5.1 µM | 5 µM | 5.4 µM |  |  |  |  |
| C=C1C(=O)O[C@@H]2C3O[C@]3(C)CC/C=C(\C)CC[C@@H]12 (some centres undefined) | 2 µM | 2.3 µM | 2 µM | 2.5 µM | Unstable | 0.278 h | 1.39 h |  |
| C/C1=C\CC[C@@]2(C)O[C@H]2[C@H]2OC(=O)[C@@H](C)[C@@H]2CC1 |  |  |  |  |  | > 7 h |  | 20% |
| C=C1C(=O)O[C@@H]2/C=C(\C)CC/C=C(\C)CC[C@@H]12 [COSTUNOLIDE] | 5.9 µM | 4.1 µM | 2.1 µM | 4.1 µM |  |  |  |  |
